Assay results reported in ChEMBL document CHEMBL1201862, “PubChem BioAssay data set” (2004).
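Cultured in 96-well plates, cells were exposed to test compound for 48 hours across five concentrations. GI50 is the concentration that inhibits growth by half.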 Active and inactive are the calls of the source. Rule as the data show it: active = GI50 up to about 1.1 µM and inactive = higher.

Tests used:
Test in all cases: inhibition of tumour cell growth, NCI panel, 48 h
786-0 = test system: 786-0
A498 = test system: A498
A549 = test system: A549
ACHN = test system: ACHN
BT-549 = test system: BT-549
CAKI-1 = test system: CAKI-1
CCRF-CEM = test system: CCRF-CEM
COLO 205 = test system: COLO 205
EKVX = test system: EKVX
HCC 2998 = test system: HCC 2998
HCT-116 = test system: HCT-116
HCT-15 = test system: HCT-15
HOP-62 = test system: HOP-62
HOP-92 = test system: HOP-92
HT-29 = test system: HT-29
IGROV-1 = test system: IGROV-1
K562 = test system: K562
KM12 = test system: KM12
LOX IMVI = test system: LOX IMVI
M14 = test system: M14
MCF7 = test system: MCF7
MDA-MB-231 = test system: MDA-MB-231
MDA-MB-435 = test system: MDA-MB-435
MDA-N = test system: MDA-N
MOLT-4 = test system: MOLT-4
Malme-3M = test system: Malme-3M
NCI-H226 = test system: NCI-H226
NCI-H460 = test system: NCI-H460
NCI-H522 = test system: NCI-H522
NCI/ADR-RES = test system: NCI/ADR-RES
OVCAR-4 = test system: OVCAR-4
OVCAR-5 = test system: OVCAR-5
OVCAR-8 = test system: OVCAR-8
PC-3 = test system: PC-3
RPMI-8226 = test system: RPMI-8226
RXF 393 = test system: RXF 393
SF-268 = test system: SF-268
SF-295 = test system: SF-295
SF-539 = test system: SF-539
SK-MEL-28 = test system: SK-MEL-28
SK-MEL-2 = test system: SK-MEL-2
SK-MEL-5 = test system: SK-MEL-5
SK-OV-3 = test system: SK-OV-3
SN12C = test system: SN12C
SNB-19 = test system: SNB-19
SNB-75 = test system: SNB-75
SW-620 = test system: SW-620
TK-10 = test system: TK-10
U-251 = test system: U-251
UACC-257 = test system: UACC-257
UACC-62 = test system: UACC-62
DU-145 = test system: DU-145
HL-60 = test system: HL-60
Hs-578T = test system: Hs-578T
NCI-H23 = test system: NCI-H23
OVCAR-3 = test system: OVCAR-3
SR = test system: SR
UO-31 = test system: UO-31

Cc1ccc(-c2c(C#N)c(-c3ccccc3)n(NS(=O)(=O)c3ccccc3)c(=O)c2C#N)cc1
GI50 (786-0): > 100 µM (inactive)
GI50 (A498): > 100 µM (inactive)
GI50 (A549): > 100 µM (inactive)
GI50 (ACHN): > 100 µM (inactive)
GI50 (BT-549): 64 µM (inactive)
GI50 (CAKI-1): > 100 µM (inactive)
GI50 (CCRF-CEM): 32.1 µM (inactive)
GI50 (COLO 205): > 100 µM (inactive)
GI50 (EKVX): > 100 µM (inactive)
GI50 (HCC 2998): 47.3 µM (inactive)
GI50 (HCT-116): 74.5 µM (inactive)
GI50 (HCT-15): 60 µM
GI50 (HOP-62): 64.7 µM (inactive)
GI50 (HOP-92): 61.5 µM (inactive)
GI50 (HT-29): > 100 µM (inactive)
GI50 (IGROV-1): 40.6 µM (inactive)
GI50 (K562): > 100 µM (inactive)
GI50 (KM12): 89.3 µM (inactive)
GI50 (LOX IMVI): 51.1 µM (inactive)
GI50 (M14): 93.3 µM (inactive)
GI50 (MCF7): 76.2 µM (inactive)
GI50 (MDA-MB-231): > 100 µM (inactive)
GI50 (MDA-MB-435): 99.8 µM (inactive)
GI50 (MDA-N): 92.7 µM (inactive)
GI50 (MOLT-4): 20.7 µM (inactive)
GI50 (Malme-3M): 61.5 µM (inactive)
GI50 (NCI-H226): > 100 µM (inactive)
GI50 (NCI-H460): 61.7 µM (inactive)
GI50 (NCI-H522): 88.1 µM (inactive)
GI50 (NCI/ADR-RES): 63.5 µM (inactive)
GI50 (OVCAR-4): > 100 µM (inactive)
GI50 (OVCAR-5): > 100 µM (inactive)
GI50 (OVCAR-8): > 100 µM (inactive)
GI50 (PC-3): 48.1 µM (inactive)
GI50 (RPMI-8226): 19.6 µM (inactive)
GI50 (RXF 393): 63.4 µM (inactive)
GI50 (SF-268): 63.1 µM (inactive)
GI50 (SF-295): 60.7 µM (inactive)
GI50 (SF-539): 87.1 µM (inactive)
GI50 (SK-MEL-28): > 100 µM (inactive)
GI50 (SK-MEL-2): > 100 µM (inactive)
GI50 (SK-MEL-5): 34.6 µM (inactive)
GI50 (SK-OV-3): > 100 µM (inactive)
GI50 (SN12C): > 100 µM (inactive)
GI50 (SNB-19): 76 µM (inactive)
GI50 (SNB-75): 67.6 µM (inactive)
GI50 (SW-620): 86.3 µM (inactive)
GI50 (TK-10): > 100 µM (inactive)
GI50 (U-251): 81.7 µM (inactive)
GI50 (UACC-257): > 100 µM (inactive)
GI50 (UACC-62): 95.5 µM (inactive)

Cn1c2ccccc2c2nc3ccccc3c(Cl)c21
GI50 (786-0): > 100 µM (inactive)
GI50 (A498): > 100 µM (inactive)
GI50 (A549): > 100 µM (inactive)
GI50 (BT-549): > 100 µM (inactive)
GI50 (CAKI-1): > 100 µM (inactive)
GI50 (CCRF-CEM): > 100 µM (inactive)
GI50 (COLO 205): > 100 µM (inactive)
GI50 (DU-145): > 100 µM (inactive)
GI50 (HCT-116): > 100 µM (inactive)
GI50 (HCT-15): > 100 µM
GI50 (HL-60): > 100 µM (inactive)
GI50 (HOP-62): > 100 µM (inactive)
GI50 (HOP-92): > 10 µM (inactive)
GI50 (HT-29): > 100 µM (inactive)
GI50 (Hs-578T): > 100 µM (inactive)
GI50 (IGROV-1): > 100 µM (inactive)
GI50 (K562): > 100 µM (inactive)
GI50 (KM12): > 100 µM (inactive)
GI50 (LOX IMVI): > 100 µM (inactive)
GI50 (M14): > 100 µM (inactive)
GI50 (MCF7): > 100 µM (inactive)
GI50 (MDA-MB-231): > 100 µM (inactive)
GI50 (MDA-MB-435): > 100 µM (inactive)
GI50 (MOLT-4): > 100 µM (inactive)
GI50 (Malme-3M): > 100 µM (inactive)
GI50 (NCI-H226): > 100 µM (inactive)
GI50 (NCI-H23): 36.2 µM (inactive)
GI50 (NCI-H460): > 100 µM (inactive)
GI50 (NCI-H522): > 100 µM (inactive)
GI50 (NCI/ADR-RES): > 100 µM (inactive)
GI50 (OVCAR-3): > 100 µM (inactive)
GI50 (OVCAR-4): > 100 µM (inactive)
GI50 (OVCAR-5): 49 µM (inactive)
GI50 (OVCAR-8): > 100 µM (inactive)
GI50 (PC-3): > 100 µM (inactive)
GI50 (RPMI-8226): > 100 µM (inactive)
GI50 (RXF 393): 37.9 µM (inactive)
GI50 (SF-268): > 100 µM (inactive)
GI50 (SF-295): > 100 µM (inactive)
GI50 (SF-539): > 100 µM (inactive)
GI50 (SK-MEL-28): > 100 µM (inactive)
GI50 (SK-MEL-2): > 100 µM (inactive)
GI50 (SK-OV-3): 35.9 µM (inactive)
GI50 (SN12C): > 100 µM (inactive)
GI50 (SNB-19): > 100 µM (inactive)
GI50 (SNB-75): 23.4 µM (inactive)
GI50 (SR): > 100 µM (inactive)
GI50 (SW-620): > 100 µM (inactive)
GI50 (TK-10): > 100 µM (inactive)
GI50 (U-251): 55.8 µM (inactive)
GI50 (UACC-257): > 100 µM (inactive)
GI50 (UACC-62): 92.5 µM (inactive)

O=C(NCCN1CCCCC1)c1cccc(I)c1
GI50 (786-0): > 100 µM (inactive)
GI50 (A498): > 100 µM (inactive)
GI50 (A549): > 100 µM (inactive)
GI50 (ACHN): > 100 µM (inactive)
GI50 (BT-549): > 100 µM (inactive)
GI50 (CAKI-1): > 100 µM (inactive)
GI50 (CCRF-CEM): > 100 µM (inactive)
GI50 (EKVX): > 100 µM (inactive)
GI50 (HCC 2998): > 100 µM (inactive)
GI50 (HCT-15): > 100 µM
GI50 (HL-60): > 100 µM (inactive)
GI50 (HOP-92): 94.2 µM (inactive)
GI50 (HT-29): 49.7 µM (inactive)
GI50 (Hs-578T): > 100 µM (inactive)
GI50 (IGROV-1): > 100 µM (inactive)
GI50 (K562): > 100 µM (inactive)
GI50 (KM12): > 100 µM (inactive)
GI50 (LOX IMVI): > 100 µM (inactive)
GI50 (M14): 72.9 µM (inactive)
GI50 (MCF7): > 100 µM (inactive)
GI50 (MOLT-4): > 100 µM (inactive)
GI50 (NCI-H226): > 100 µM (inactive)
GI50 (NCI-H23): > 100 µM (inactive)
GI50 (NCI-H460): > 100 µM (inactive)
GI50 (NCI/ADR-RES): > 100 µM (inactive)
GI50 (OVCAR-3): > 100 µM (inactive)
GI50 (OVCAR-4): > 100 µM (inactive)
GI50 (OVCAR-5): > 100 µM (inactive)
GI50 (OVCAR-8): > 100 µM (inactive)
GI50 (PC-3): > 100 µM (inactive)
GI50 (RPMI-8226): > 100 µM (inactive)
GI50 (RXF 393): > 100 µM (inactive)
GI50 (SF-268): > 100 µM (inactive)
GI50 (SF-539): > 100 µM (inactive)
GI50 (SK-MEL-28): > 100 µM (inactive)
GI50 (SK-MEL-5): > 100 µM (inactive)
GI50 (SK-OV-3): > 100 µM (inactive)
GI50 (SN12C): > 100 µM (inactive)
GI50 (SNB-19): > 100 µM (inactive)
GI50 (SNB-75): 55.2 µM (inactive)
GI50 (SR): > 100 µM (inactive)
GI50 (SW-620): > 100 µM (inactive)
GI50 (TK-10): > 100 µM (inactive)
GI50 (U-251): > 100 µM (inactive)
GI50 (UACC-62): > 100 µM (inactive)
GI50 (UO-31): > 100 µM (inactive)

Cc1cc(C)nc(NCCC(O)(P(=O)(O)O)P(=O)(O)O)n1
GI50 (786-0): > 100 µM (inactive)
GI50 (A549): > 100 µM (inactive)
GI50 (ACHN): > 100 µM (inactive)
GI50 (BT-549): > 100 µM (inactive)
GI50 (CAKI-1): > 100 µM (inactive)
GI50 (COLO 205): > 100 µM (inactive)
GI50 (DU-145): > 100 µM (inactive)
GI50 (EKVX): > 100 µM (inactive)
GI50 (HCC 2998): > 100 µM (inactive)
GI50 (HCT-116): > 100 µM (inactive)
GI50 (HCT-15): > 100 µM
GI50 (HOP-62): > 100 µM (inactive)
GI50 (IGROV-1): > 100 µM (inactive)
GI50 (KM12): > 100 µM (inactive)
GI50 (LOX IMVI): > 100 µM (inactive)
GI50 (M14): > 100 µM (inactive)
GI50 (MCF7): 92.5 µM (inactive)
GI50 (MDA-MB-231): > 100 µM (inactive)
GI50 (MDA-N): > 100 µM (inactive)
GI50 (Malme-3M): > 100 µM (inactive)
GI50 (NCI-H226): > 100 µM (inactive)
GI50 (NCI-H23): > 100 µM (inactive)
GI50 (NCI-H460): > 100 µM (inactive)
GI50 (NCI-H522): > 100 µM (inactive)
GI50 (NCI/ADR-RES): > 100 µM (inactive)
GI50 (OVCAR-3): 39.2 µM (inactive)
GI50 (OVCAR-5): > 100 µM (inactive)
GI50 (PC-3): > 100 µM (inactive)
GI50 (RXF 393): > 100 µM (inactive)
GI50 (SF-268): > 100 µM (inactive)
GI50 (SF-295): > 100 µM (inactive)
GI50 (SF-539): > 100 µM (inactive)
GI50 (SK-MEL-5): > 100 µM (inactive)
GI50 (SK-OV-3): > 100 µM (inactive)
GI50 (SNB-19): > 100 µM (inactive)
GI50 (TK-10): > 100 µM (inactive)
GI50 (UACC-257): > 100 µM (inactive)
GI50 (UACC-62): > 100 µM (inactive)
GI50 (UO-31): > 100 µM (inactive)
